Laboratory results published in ChEMBL document CHEMBL1138457, “Design and synthesis of an orally bioavailable and selective peptide epoxyketone proteasome inhibitor (PR-047)” (J Med Chem, 2009).

Columns and labels:
[1] = Chemical stability in simulated intestinal fluid assessed as compound remaining at 4 uM after 15 mins; format: physicochemical; details: read-out: Stability
[2] = Inhibition of chymotrypsin-like activity of 20S proteasome in human MOLT4 cells after 1 hr by […]; format: cell-based; details: MOLT-4, 1 h
[3] = Cytotoxicity against human MESSA cells assessed as cell viability after 72 hrs by CellTiter-Glo luminescent assay; format: functional, cell-based; details: MES-SA
Mus musculus [4] = test: Inhibition of chymotrypsin-like activity of 20S proteasome in BALB/c mouse adrenal gland at 20 mg/kg, po after 1 hr; format: functional; design: scale not given: the % may be the effect or the level left
[5] = Cytotoxicity against multidrug resistance transporter expressing doxorubicin resistant human MESSA cells assessed as cell viability after 72 hrs by CellTiter-Glo luminescent assay; format: functional, cell-based; details: MES-SA
[6] = Inhibition of chymotrypsin-like activity of human 20S proteasome by spectrofluorimetry
[7] = Metabolic stability in mouse liver microsomes assessed as extraction ratio at 1 uM; format: ADME, Microsome
[8] = target: T1, Proteasome subunit beta type-8 (Homo sapiens, UniProt P28062)
T1 sequence (P28062 whole entry): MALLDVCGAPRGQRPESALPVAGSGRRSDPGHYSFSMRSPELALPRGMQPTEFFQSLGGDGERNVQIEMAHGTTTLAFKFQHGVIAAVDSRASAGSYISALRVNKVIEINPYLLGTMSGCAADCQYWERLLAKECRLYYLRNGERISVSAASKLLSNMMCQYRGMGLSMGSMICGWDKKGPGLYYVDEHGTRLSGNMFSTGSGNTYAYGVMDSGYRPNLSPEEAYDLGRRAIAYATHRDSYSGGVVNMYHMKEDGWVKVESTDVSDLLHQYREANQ
Description: Inhibition of chymotrypsin-like activity of LMP7 immunoproteasome by proteasome active site ELISA

[9] = Metabolic stability in human liver microsomes assessed as extraction ratio at 1 uM; format: ADME, Microsome
Mus musculus [10] = test: Inhibition of chymotrypsin-like activity of 20S proteasome in BALB/c mouse adrenal gland at 10 mg/kg, po after 1 hr; format: functional; design: scale not given: the % may be the effect or the level left
[11] = Inhibition of chymotrypsin-like activity of human 20S proteasome beta 5 subunit by proteasome active site ELISA
Mus musculus [12] = test: Inhibition of chymotrypsin-like activity of 20S proteasome in BALB/c mouse adrenal gland 40 mg/kg, po after 1 hr; format: functional; design: scale not given: the % may be the effect or the level left
[13] = Solubility in ethanol-PS80 citrate buffer at pH 3.5 by HPLC analysis; format: physicochemical

remaining at 0.25 h, 4 µM [1] [%]	IC50 [6] [nM]	hepatic extraction ratio at 1 µM [7] [dimensionless ratio]	IC50 [8] [nM]	hepatic extraction ratio at 1 µM [9] [dimensionless ratio]	IC50 [11] [nM]	solubility [13] [µg/mL]	Compound	IC50 [2] [nM]	IC50 [3] [nM]	Activity (Mus musculus [4]) [%]	IC50 [5] [nM]	Activity (Mus musculus [10]) [%]	Activity (Mus musculus [12]) [%]
100	54	0.47					CC[C@H](NC(=O)[C@H](COC)NC(=O)c1cc(C)on1)C(=O)N[C@@H](CC(C)C)C(=O)[C@@]1(C)CO1	248	92	90	468		
85	73	0.49	93	0.42	44		COC[C@H](NC(=O)c1ccon1)C(=O)N[C@@H](COC)C(=O)N[C@@H](Cc1ccccc1)C(=O)[C@@]1(C)CO1	47	43		756	34	
90	1.6						Cc1cc(C(=O)N[C@@H](Cc2cccnc2)C(=O)N[C@@H](Cc2ccccc2)C(=O)N[C@@H](CC(C)C)C(=O)[C@@]2(C)CO2)no1	27	39		543		70
100	16	0.86		0.85			COC[C@H](NC(=O)c1cc(C)on1)C(=O)N[C@@H](Cc1cscn1)C(=O)N[C@@H](CC(C)C)C(=O)[C@@]1(C)CO1	25	17	39	367		
95	44	0.79		0.63			COC[C@H](NC(=O)c1cc(C)on1)C(=O)N[C@H](C(=O)N[C@@H](CC(C)C)C(=O)[C@@]1(C)CO1)C(C)C	147	57	12	636		
90	24	0.59	21	0.59	11		COC[C@H](NC(=O)c1cc(C)on1)C(=O)N[C@@H](COC)C(=O)N[C@@H](Cc1ccccc1)C(=O)[C@@]1(C)CO1	35	17		155	43	
20	5.2						CC(C)C[C@H](NC(=O)[C@H](Cc1ccccc1)NC(=O)[C@H](Cc1ccccn1)NC(=O)c1cc(CN2CCOCC2)on1)C(=O)[C@@]1(C)CO1	31	11		421		92
					8.7		CC(C)C[C@H](NC(=O)[C@H](Cc1ccccc1)NC(=O)c1cnccn1)B(O)O [BORTEZOMIB]						
90	19						COCC[C@H](NC(=O)c1cc(CN2CCOCC2)on1)C(=O)N[C@@H](Cc1ccccc1)C(=O)N[C@@H](CC(C)C)C(=O)[C@@]1(C)CO1	42	24		1140		81
70	3.1	0.69	41	0.69	9.3		CCOc1cc(C(=O)N[C@@H](COC)C(=O)N[C@@H](COC)C(=O)N[C@@H](CC(C)C)C(=O)[C@@]2(C)CO2)no1	35	5.4		66	4	
15	6.9						CC(C)C[C@H](NC(=O)[C@H](Cc1ccccc1)NC(=O)[C@H](Cc1cscn1)NC(=O)c1cc(CN2CCOCC2)on1)C(=O)[C@@]1(C)CO1	59	7.9		841		93
90	43	0.39	607	0.16	48		COC[C@H](NC(=O)c1ccon1)C(=O)N[C@@H](COC)C(=O)N[C@@H](CC(C)C)C(=O)[C@@]1(C)CO1	168	37		260	14	
90	9.2	0.95		0.87			COC[C@H](NC(=O)c1cc(C)on1)C(=O)N[C@@H](Cc1ccsc1)C(=O)N[C@@H](CC(C)C)C(=O)[C@@]1(C)CO1	46	25	117	181		
20	13						Cc1cc(C(=O)N[C@@H](Cc2ccccn2)C(=O)N[C@@H](Cc2ccccc2)C(=O)N[C@@H](CC(C)C)C(=O)[C@@]2(C)CO2)no1	78	45		219		23
90	20	0.45		0.83			COC[C@H](NC(=O)c1cc(C)on1)C(=O)N[C@@H](CC(C)C)C(=O)N[C@@H](CC(C)C)C(=O)[C@@]1(C)CO1	41	45	37	366		
100	50	0.54	36	0.64	14		COC[C@H](NC(=O)c1cc(OC)no1)C(=O)N[C@@H](COC)C(=O)N[C@@H](Cc1ccccc1)C(=O)[C@@]1(C)CO1	10	12		269	19	
	13					≥ 1000	CC(C)C[C@H](NC(=O)c1cc(Cn2cncn2)on1)C(=O)N[C@@H](Cc1ccccc1)C(=O)N[C@@H](CC(C)C)C(=O)[C@@]1(C)CO1	62	35		> 1000		105
60	5.1						CC(C)C[C@H](NC(=O)[C@H](Cc1ccccc1)NC(=O)[C@H](Cc1ccncc1)NC(=O)c1cc(CN2CCOCC2)on1)C(=O)[C@@]1(C)CO1	14	8.7		> 1000		96
20	6.7						Cc1cc(C(=O)N[C@@H](Cc2cscn2)C(=O)N[C@@H](Cc2ccccc2)C(=O)N[C@@H](CC(C)C)C(=O)[C@@]2(C)CO2)no1	56	15		77	63	
100	40	0.28					COC[C@H](NC(=O)c1cc(C)on1)C(=O)N[C@@H](CC#N)C(=O)N[C@@H](CC(C)C)C(=O)[C@@]1(C)CO1	91	29	40	941		
	15					≥ 1000	CC(C)C[C@H](NC(=O)c1cc(Cn2ccnc2)on1)C(=O)N[C@@H](Cc1ccccc1)C(=O)N[C@@H](CC(C)C)C(=O)[C@@]1(C)CO1	59	52		> 1000		110
75	13	0.96		0.94			COC[C@H](NC(=O)c1cc(C)on1)C(=O)N[C@@H](CC1CCCCC1)C(=O)N[C@@H](CC(C)C)C(=O)[C@@]1(C)CO1	78	210	56	353		
35	11	0.37	22	0.4	23		COC[C@H](NC(=O)c1cc(OC)no1)C(=O)N[C@@H](COC)C(=O)N[C@@H](CC(C)C)C(=O)[C@@]1(C)CO1	32	12		82	21	
80	5.7						COC[C@H](NC(=O)c1cc(CN2CCOCC2)on1)C(=O)N[C@@H](Cc1ccccc1)C(=O)N[C@@H](CC(C)C)C(=O)[C@@]1(C)CO1	26	13		147		57
80	26						COCC[C@H](NC(=O)c1cc(C)on1)C(=O)N[C@@H](Cc1ccccc1)C(=O)N[C@@H](CC(C)C)C(=O)[C@@]1(C)CO1	69	164		286		47
90	2.8						Cc1cc(C(=O)N[C@@H](Cc2ccncc2)C(=O)N[C@@H](Cc2ccccc2)C(=O)N[C@@H](CC(C)C)C(=O)[C@@]2(C)CO2)no1	8.6	8.6		271		28
	34						CC(C)C[C@H](NC(=O)c1ccoc1)C(=O)N[C@@H](Cc1ccccc1)C(=O)N[C@@H](CC(C)C)C(=O)[C@@]1(C)CO1	116	54		125		
